Source: patent publication US20030187064A1, “Use” (priority 2001, published 2003)
Where “and” joins values, the source holds several entries; their conditions need not be identical. Equal entries are not always repeated.

Experiments:
[1] = Irritation effect of shampoo on the scalp; conditions: added to shampoo, 2000 ppm
[2] = Preserving effect in toothpaste; conditions: 2000 ppm; compared with sodium benzoate
[3] = Preserving effect in shampoo; conditions: 2000 ppm; compared with a normally used preservative
[4] = Preserving effect in skin cream (oil-in-water); conditions: 250 or 2000 ppm; compared with methyl paraben
[5] = Irritation effect of skin cream on the skin; conditions: added to skin cream, 250 or 2000 ppm
[6] = tested on: Bacillus anthracis; type: cell-based
[7] = tested on: B. anthracis; type: cell-based, Bacillus anthracis; conditions: 24 h at 30° C.
[8] = tested on: B. anthracis 3.046; type: cell-based, Bacillus anthracis; conditions: 24 h at 30° C.
[9] = tests disclosed in the literature (Baute et al. 1993); cited from earlier work
[10] = cited from earlier work
[11] = tested on: caries; experiment: Caries inhibition by toothpaste with APP; conditions: added to toothpaste, 2000 ppm
[12] = Stability of APP in water; conditions: water at 24° C.
[13] = tested on: B. anthracis 204; type: cell-based, Bacillus anthracis; conditions: 24 h at 30° C.
[14] = tested on: yeasts and moulds as well as catalase-positive bacteria; conditions: cited from earlier work
[15] = tested on: aerobic, Gram-negative bacteria; conditions: cited from earlier work
[16] = tested on: Gram-positive bacteria, yeasts, and moulds; conditions: cited from earlier work
[17] = tested on: moulds; conditions: pH of 5.5; cited from earlier work
[18] = tested on: bacteria; conditions: cited from earlier work

O=C1CO[C@H](CO)[C@@H](O)[C@@H]1O [AF, 1,5-anhydro-D-fructose]
Irritation effect on the scalp [1]: no irritation effect | Preserving effect in toothpaste [2]: as good preservatives as the commonly used preservative | Preserving effect in shampoo [3]: as good preservatives as the commonly used preservative | Preserving effect in skin cream [4]: as good preservatives as the commonly used preservative | Irritation effect on the skin [5]: no irritation effect

O=C1C[C@@H](CO)OC=C1O [APP, 1,5-Anhydro-4-deoxy-D-glycero-hex-1-en-3-ulose]
Sensitivity in well diffusion test (zones of inhibition) [6]: sensitive | Irritation effect on the scalp [1]: no irritation effect | APP level causing significant inhibition [7]: 2000 ppm | APP level causing total inhibition [7]: 4000 ppm and >4000 ppm | Preserving effect in toothpaste [2]: as good preservatives as the commonly used preservative | APP level causing significant inhibition [8]: 2000 ppm | APP level causing total inhibition [8]: 3000 ppm | Function as an antibiotic [9]: did not function satisfactorily as an antibiotic | Preserving effect in shampoo [3]: as good preservatives as the commonly used preservative | Stability ([10]; pH 1.5-5.5): stable | half-life ([10]; pH 11-12.5): 5 h | Inhibition of caries [11]: inhibited caries | Preserving effect in skin cream [4]: as good preservatives as the commonly used preservative | Stability in water ([12]; 2 weeks): stable | Stability in water ([12]; after 2 months): completely disappears | Irritation effect on the skin [5]: no irritation effect | APP level causing significant inhibition [13]: 4000 ppm and 2000 ppm | APP level causing total inhibition [13]: >4000 ppm and 4000 ppm

C/C=C/C=C/C(=O)O [Sorbic Acid]
Effective concentration [14]: 500-3000 ppm

O=S=O [Sulphur Dioxide]
Effective concentration for inhibition [15]: 250-500 ppm | Effective concentration [16]: 800-2000 ppm

Propionic Acid and Propionate
Concentration inhibiting moulds [17]: 125 to 12500 ppm | Concentration necessary for inhibition of bacteria [18]: > 16000 ppm
